Key:
P-gp [1] = biological target: T1, P-gp (Mus musculus, UniProt P21447); assay: Stimulation of basal ATPase activity of purified P-gp; format: biochemical; settings: 310 K
T1 construct: inferred from the Ni-NTA purification; made in house; host or cells: Pichia pastoris
Method: The ATPase activity of P-gp was measured at 310 K using the ATP-regenerating system described by Vogel & Steinhart (1976[▶]) as modified by Urbatsch et al. (1995[▶]). Briefly, 1 µg P-gp was added to 100 µl 50 mM Tris–HCl pH 7.5 buffer containing 10 mM ATP, 12 mM MgCl2, 6 mM phosphoenolpyruvate, 1 mM NADH, 10 units of lactate dehydrogenase, 10 units of pyruvate kinase and test compounds over a range of concentrations. ATP hydrolysis was determined by the decrease in NADH absorbance at OD340 using a Filtermax F5 Multiplate Spectrophotometer. The ATPase activity was calculated using the equation ΔOD/(∊ × [protein] × time), where ΔOD is the change in absorbance and ∊ is the extinction coefficient of NADH. The concentration of purified P-gp was estimated by comparing the SDS–PAGE intensity of Coomassie-stained protein bands with known amounts of BSA. EC50 values were calculated using GraphPad Prism (GraphPad Software, San Diego, California, USA) using nonlinear regression (curve fit) from the entire concentration range.
Gene-optimized mouse P-gp (ABCB1a; GenBank JF834158) was expressed in Pichia pastoris in 10 l cultures in a BioFlo 415 bioreactor (New Brunswick Scientific) and was induced by the slow addition of methanol (3.6 ml per hour per litre of culture volume) overnight as described previously (Aller et al., 2009[▶]; Bai et al., 2011[▶]). […]

P-gp [2] = biological target: T2, P-gp (Cricetulus griseus, UniProt P21448); assay: Calcein-AM transport assay in P-gp-overexpressing CR1R12 cells; format: cell-based, Chinese hamster; settings: calcein-AM 0.25 µM, room temperature, read-out: IC50 inhibition of calcein-AM export
T2 construct: endogenous in cells; host or cells: Chinese hamster ovary CR1R12 cells (colchicine-selected; parental AUXB1)
T2 sequence (P21448 whole entry): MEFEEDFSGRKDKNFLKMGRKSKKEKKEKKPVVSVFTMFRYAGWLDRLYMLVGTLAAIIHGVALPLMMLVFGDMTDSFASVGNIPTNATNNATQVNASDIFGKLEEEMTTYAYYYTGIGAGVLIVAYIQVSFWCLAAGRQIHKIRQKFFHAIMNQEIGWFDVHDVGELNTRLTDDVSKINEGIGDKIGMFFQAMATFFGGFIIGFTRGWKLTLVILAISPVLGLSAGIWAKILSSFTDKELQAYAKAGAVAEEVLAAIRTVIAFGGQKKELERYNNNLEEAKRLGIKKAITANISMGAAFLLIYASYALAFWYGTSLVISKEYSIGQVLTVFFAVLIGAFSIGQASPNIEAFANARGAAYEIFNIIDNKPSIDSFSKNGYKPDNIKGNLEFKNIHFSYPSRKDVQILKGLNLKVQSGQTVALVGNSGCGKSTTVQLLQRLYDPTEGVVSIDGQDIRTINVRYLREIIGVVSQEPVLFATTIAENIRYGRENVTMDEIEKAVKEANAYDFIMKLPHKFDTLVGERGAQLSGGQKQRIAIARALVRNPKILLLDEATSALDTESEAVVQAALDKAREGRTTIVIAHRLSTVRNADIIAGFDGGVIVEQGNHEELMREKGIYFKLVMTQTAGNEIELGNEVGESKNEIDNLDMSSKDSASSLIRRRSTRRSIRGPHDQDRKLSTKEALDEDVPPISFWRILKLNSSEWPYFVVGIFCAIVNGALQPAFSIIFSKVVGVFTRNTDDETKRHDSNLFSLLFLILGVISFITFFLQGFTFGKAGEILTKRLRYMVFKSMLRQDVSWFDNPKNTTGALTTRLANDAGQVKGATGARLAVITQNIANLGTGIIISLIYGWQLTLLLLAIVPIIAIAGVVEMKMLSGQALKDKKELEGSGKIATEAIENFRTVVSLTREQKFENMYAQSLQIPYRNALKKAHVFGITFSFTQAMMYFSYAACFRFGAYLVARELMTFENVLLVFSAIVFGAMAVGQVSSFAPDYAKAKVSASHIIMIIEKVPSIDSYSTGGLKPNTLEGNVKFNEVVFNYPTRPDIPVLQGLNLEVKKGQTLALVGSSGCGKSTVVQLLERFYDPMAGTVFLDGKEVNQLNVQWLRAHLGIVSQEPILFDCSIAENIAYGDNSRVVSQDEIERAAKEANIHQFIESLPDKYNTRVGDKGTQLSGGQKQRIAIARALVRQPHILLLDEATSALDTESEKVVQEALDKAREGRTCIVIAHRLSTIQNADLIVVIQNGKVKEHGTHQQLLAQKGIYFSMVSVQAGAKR
Method: It has commonly been used in fluorescence-based transport assays for P-gp in whole-cell systems (Al-Shawi & Senior, 1993[▶]). Chinese hamster ovary CR1R12 cells were cultured in the presence of 5 µg ml^−1 colchicine to maintain P-gp overexpression. In general, ∼5 × 10^5 CR1R12 cells per well were pretreated with test compounds in serially increasing concentrations at room temperature for 15 min; calcein-AM (0.25 µM) was then added and incubated for an additional 15 min at room temperature while monitoring the fluorescence intensity (excitation at 485 nm, emission at 535 nm). 100% was the maximum fluorescence achieved by full inhibition of P-gp in CR1R12 cells. The means and standard deviations were obtained from quadruplet experiments.

CR1R12 cells = assay: Sensitization assay: growth of CR1R12 cells with colchicine (sulforhodamine B); format: cell-based, Chinese hamster
Method: (§1) CR1R12 cells were grown in the presence of increasing concentrations of colchicine for 3 d at given concentrations of test compounds. Cell densities were determined using the sulforhodamine B colorimetric assay (Vichai & Kirtikara, 2006[▶]). 100% is defined as the growth in the absence of colchicine. Parental AUXB1 cells were included as controls. […]
(§2) Figure S4 Sensitization of CR1R12 cells to the anti-cancer drug colchicine by homotrimeric cyclopeptides. Relative to parental control AUXB1 cells, P-gp-overexpressing CR1R12 cells are ~200 times more resistant to the anticancer drug colchicine (gray lines in all panes). Their 50% growth […]
(§3) Presence of (a) QZ-Ala, green, (b)
(§4) QZ-Val, blue, and (d) QZ-Phe, red, in the growth media sensitized the CR1R12 cells to colchicine in a concentration-dependent manner with full reversal of P-gp mediated multidrug resistance seen at 2 […]
(§5) increasing concentrations of (c) QZ-Leu, yellow, also sensitized CR1R12 cells to colchicine, where […]
(§6) higher concentrations. Shown are representative data from three independent experiments. The concentrations are plotted in log scale.

[3] = tested on: P-gp-over-expressing CR1R12, and parental control AuxB1, cells; assay: Cytotoxicity of the cyclopeptides to CR1R12 and parental AuxB1 cells (Fig. S3); format: cell-based, Chinese hamster
Method: Figure S1 NMR spectra of QZ-Ala, QZ-Leu and QZ-Phe. 13C (top) and 1H (bottom) spectra are […]
Figure S2 Structure based alignment. Two views of P-gp depicting Cα position shifts between the new (P-gp native at 3.4 Å, reported here) and previously published model (pdb code: 4KSB). Changes are depicted by color with red indicating the largest shift in Cα position (8.35 Å). Alignments and pairwise Cα RMSD calculations were calculated using the python module ‘ColorByRMSD’ within the PyMOL Molecular Graphics System (Schrödinger, LLC)
Figure S3 Cytotoxicity of the homotrimeric cyclopeptide compounds to P -gp-over-expressing CR1R12, and parental control AuxB1, cells using Calcein-AM transport assay. P-gp mediates mild […]
of this compound at high concentrations. The mean and SD of quadruplet experiments are shown; data were fit using the Hill equation. QZ-Ala, QZ-Val, QZ-Leu and QZ-Phe are drawn in green, blue, yellow and red curves, respectively. The concentrations are plotted in log scale.
as §2
Presence of (a) QZ-Ala, green, (b) […]

[4] = Solubility remark (Fig. S3 legend); format: physicochemical; settings: at high concentrations
AUXB1 cells = assay: Growth inhibition of parental control AUXB1 cells by colchicine; format: cell-based, Chinese hamster; settings: Cricetulus griseus, read-out: 50% growth inhibition (GI50)
Method: as §1, §2, §3, §4, §5, §6

T1 sequence (P21447 whole entry): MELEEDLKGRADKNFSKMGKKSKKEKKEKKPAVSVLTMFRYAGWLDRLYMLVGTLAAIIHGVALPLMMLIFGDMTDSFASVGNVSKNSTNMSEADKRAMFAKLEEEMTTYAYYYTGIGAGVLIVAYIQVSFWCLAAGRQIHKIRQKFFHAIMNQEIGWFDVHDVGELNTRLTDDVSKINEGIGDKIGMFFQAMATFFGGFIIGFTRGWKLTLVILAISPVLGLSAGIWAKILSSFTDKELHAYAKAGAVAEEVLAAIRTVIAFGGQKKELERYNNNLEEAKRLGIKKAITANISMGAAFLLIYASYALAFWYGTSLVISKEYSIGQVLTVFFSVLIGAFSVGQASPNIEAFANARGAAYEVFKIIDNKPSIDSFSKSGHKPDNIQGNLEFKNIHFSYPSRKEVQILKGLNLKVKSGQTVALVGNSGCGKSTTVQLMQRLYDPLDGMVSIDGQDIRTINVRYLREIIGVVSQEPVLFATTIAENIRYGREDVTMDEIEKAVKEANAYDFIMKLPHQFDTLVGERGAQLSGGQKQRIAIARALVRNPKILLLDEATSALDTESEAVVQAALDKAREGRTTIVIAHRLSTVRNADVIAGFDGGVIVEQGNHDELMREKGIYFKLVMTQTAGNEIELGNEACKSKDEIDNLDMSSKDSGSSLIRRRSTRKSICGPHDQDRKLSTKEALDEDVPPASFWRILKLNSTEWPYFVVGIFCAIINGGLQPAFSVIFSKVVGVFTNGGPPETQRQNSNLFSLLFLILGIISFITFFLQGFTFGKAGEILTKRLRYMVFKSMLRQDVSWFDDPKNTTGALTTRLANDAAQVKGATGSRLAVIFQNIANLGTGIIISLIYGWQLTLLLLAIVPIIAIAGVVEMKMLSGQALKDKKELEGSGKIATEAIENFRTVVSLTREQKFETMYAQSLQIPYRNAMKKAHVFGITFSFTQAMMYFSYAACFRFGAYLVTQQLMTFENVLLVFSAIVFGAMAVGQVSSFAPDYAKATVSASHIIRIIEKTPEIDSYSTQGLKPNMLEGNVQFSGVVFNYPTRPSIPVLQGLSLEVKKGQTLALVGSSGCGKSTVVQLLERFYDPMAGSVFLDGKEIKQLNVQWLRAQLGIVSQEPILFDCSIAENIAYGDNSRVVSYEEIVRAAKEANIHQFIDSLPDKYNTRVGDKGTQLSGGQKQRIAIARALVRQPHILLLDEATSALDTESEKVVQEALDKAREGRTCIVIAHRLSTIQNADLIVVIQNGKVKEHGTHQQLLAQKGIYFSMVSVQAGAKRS

Structure (SMILES): C[C@@H]1NC(=O)c2c[se]c(n2)[C@H](C)NC(=O)c2c[se]c(n2)[C@H](C)NC(=O)c2c[se]c1n2 [QZ-Ala]
- EC50 (P-gp [1]): 0.92 µM
- IC50 (P-gp [2]): 0.14 µM

Structure (SMILES): CC(C)C[C@@H]1NC(=O)c2c[se]c(n2)[C@H](CC(C)C)NC(=O)c2c[se]c(n2)[C@H](CC(C)C)NC(=O)c2c[se]c1n2 [QZ-Leu]
- Cytotoxicity (in words) (CR1R12 cells; CR1R12 cells, higher concentrations): became cytotoxic
- IC50 (P-gp [2]): 5.4 µM

Structure (SMILES): O=C1N[C@@H](Cc2ccccc2)c2nc(c[se]2)C(=O)N[C@@H](Cc2ccccc2)c2nc(c[se]2)C(=O)N[C@@H](Cc2ccccc2)c2nc1c[se]2 [QZ-Phe]
- Full growth inhibition (in words) [3]: not observed
- IC50 (P-gp [2]): 24 µM
- Solubility (in words) [4]: limited solubility

Structure (SMILES): CC(C)[C@@H]1NC(=O)c2c[se]c(n2)[C@H](C(C)C)NC(=O)c2c[se]c(n2)[C@H](C(C)C)NC(=O)c2c[se]c1n2 [QZ-Val]
- IC50 (P-gp [2]): 1.7 µM

Structure (SMILES): COc1cc2c(c(OC)c1OC)-c1ccc(OC)c(=O)cc1[C@@H](NC(C)=O)CC2 [colchicine]
- Resistance of CR1R12 cells relative to AUXB1 cells (CR1R12 cells; CR1R12 vs parental AUXB1): ~ 200 times
- GI50 (CR1R12 cells; Cricetulus griseus, CR1R12 cells, no cyclopeptide, read-out: 50% growth inhibition (GI50)): 27 µM
- GI50 (AUXB1 cells): 0.14 µM

— article PMC4356375, “Snapshots of ligand entry, malleable binding and induced helical movement in P-glycoprotein” (Acta Crystallographica Section D: Biological Crystallography, 2015)
